One test concerns mPTP-active Daoy cell. In words: Inhibitory effect on mPTP-active Daoy cell (Promega CellTiter-Glo, intracellular ATP). In kind it is cell-based, human. The conditions noted are these: Daoy cell transfected with empty virus vector without PPIF shRNA.
The subject of another test is mPTP-inactive Daoy cell. In words: Inhibitory effect on mPTP-inactive Daoy cell (PPIF shRNA; Promega CellTiter-Glo, intracellular ATP). In kind it is cell-based, human. The conditions noted are these: Daoy cell transfected with virus vector carrying PPIF shRNA. From the text:
The activity of mitochondria permeability transition pore (mPTP) was regulated by the PPIF protein. […] PPIF protein activity was restricted by the expression level of PPIF protein in cell.

Where only a bound is given, the exact number is not on record here.

Drawing on US20250197389A1, “NITROGEN-CONTAINING HETEROCYCLIC COMPOUND” (SHANGHAI SHIJIANG BIOTECHNOLOGY CO., LTD, priority 2022, published 2025), this text covers IC50 for 28 molecules.

Consider `COc1ccc2c(c1OC)CN1CCc3cc4c(cc3C1=C2Cc1ccc(OC(F)(F)F)cc1)OCO4` [AB31866], for which the concentration for half-maximal inhibition (IC50) stood at 6.78 µM in the test with mPTP-active Daoy cell (Homo sapiens, Daoy) and 3.38 µM in the test with mPTP-inactive Daoy cell (Homo sapiens, Daoy).

Regarding `COc1ccc2c(c1OC)CN1CCc3cc4c(cc3C1=C2Cc1ccc(C(C)C)cc1)OCO4` [AB31870], the half-inhibitory concentration (IC50) in the test with mPTP-active Daoy cell (Homo sapiens, Daoy) is 3.94 µM; with mPTP-inactive Daoy cell (Homo sapiens, Daoy), 1.86 µM.

Take `CCCCC1c2c(c(Br)cc(OC)c2OC)C=C2c3cc4c(cc3CCN21)OCO4` (centres unmarked) [AB31873]: the IC50 in the test with mPTP-active Daoy cell (Homo sapiens, Daoy) came to 6.44 µM; in the test with mPTP-inactive Daoy cell (Homo sapiens, Daoy) it was 3.13 µM.

As to `COc1ccc2c(c1OCCCBr)CN1CCc3cc4c(cc3C1C2)OCO4` (centres unmarked) [AB31878], the half-maximal inhibitory concentration (IC50) in the test with mPTP-active Daoy cell (Homo sapiens, Daoy) came out at 10.4 µM; in the test on mPTP-inactive Daoy cell (Homo sapiens, Daoy), 11 µM.

Take `CCCCCCC1c2c(ccc(OC)c2OC)C=C2c3cc4c(cc3CCN21)OCCO4` (centres unmarked) [AB31880]: the IC50 was determined as 2.93 µM in the test on mPTP-active Daoy cell (Homo sapiens, Daoy) and 1.13 µM with mPTP-inactive Daoy cell (Homo sapiens, Daoy).

Regarding `COc1ccc2c(c1OCCCCOc1ccccc1)C(C)N1CCc3cc4c(cc3C1=C2)OCO4` (centres unmarked) [AB31881], the IC50 was 4.34 µM in the test on mPTP-active Daoy cell (Homo sapiens, Daoy) and 2.12 µM in the test with mPTP-inactive Daoy cell (Homo sapiens, Daoy).

On to `COc1ccc2c(c1OCCCBr)C(C)N1CCc3cc4c(cc3C1=C2)OCO4` (centres unmarked) [AB31887], for which the IC50 in the test on mPTP-active Daoy cell (Homo sapiens, Daoy) was found to be 6.47 µM; in the test with mPTP-inactive Daoy cell (Homo sapiens, Daoy) it was 3.17 µM.

On to `COc1ccc2c(c1OCCCCCCCl)C(C)N1CCc3cc4c(cc3C1=C2)OCO4` (centres unmarked) [AB31888], for which the IC50 in the test with mPTP-active Daoy cell (Homo sapiens, Daoy) came to 5.46 µM; in the test on mPTP-inactive Daoy cell (Homo sapiens, Daoy) it was 2.68 µM.

As to `COc1ccc2c(c1NCCc1ccccc1)C(C)N1CCc3cc4c(cc3C1=C2)OCO4` (centres unmarked) [AB31895], the IC50 is 3.15 µM with mPTP-active Daoy cell (Homo sapiens, Daoy) and 1.46 µM with mPTP-inactive Daoy cell (Homo sapiens, Daoy).

Consider `COc1ccc2c(c1OC(=O)CC13CC4CC(CC(C4)C1)C3)C(C)N1CCc3cc4c(cc3C1=C2)OCO4` (centres unmarked) [AB31896], for which the concentration for half-maximal inhibition (IC50) came out at 5.02 µM in the test with mPTP-active Daoy cell (Homo sapiens, Daoy) and 2.42 µM in the test on mPTP-inactive Daoy cell (Homo sapiens, Daoy).

Regarding `COc1ccc2c(c1OCCCCCCBr)C(C)N1CCc3cc4c(cc3C1=C2)OCO4` (centres unmarked) [AB31897], the concentration for half-maximal inhibition (IC50) in the test on mPTP-active Daoy cell (Homo sapiens, Daoy) was 3.43 µM; in the test on mPTP-inactive Daoy cell (Homo sapiens, Daoy) it was 1.58 µM.

For the molecule `COc1ccc2c(c1OC)C(C)N1CCc3cc4c(cc3C1=C2)OCCO4` (centres unmarked) [AB31898], the IC50 in the test on mPTP-active Daoy cell (Homo sapiens, Daoy) is 9.54 µM; in the test with mPTP-inactive Daoy cell (Homo sapiens, Daoy) it was 4.43 µM.

As for `COc1ccc2c(c1OC/C=C(\C)CCC=C(C)C)C(C)N1CCc3cc4c(cc3C1=C2)OCO4` (centres unmarked) [AB35402], the half-maximal inhibitory concentration (IC50) came out at 1.72 µM with mPTP-active Daoy cell (Homo sapiens, Daoy) and 0.81 µM with mPTP-inactive Daoy cell (Homo sapiens, Daoy).

`COc1ccc2c(c1OC/C=C(\C)CCC=C(C)C)C(C(Cl)(Cl)Cl)N1CCc3cc4c(cc3C1=C2)OCO4` (centres unmarked) [AB35405]: the half-inhibitory concentration (IC50) in the test with mPTP-active Daoy cell (Homo sapiens, Daoy) is 2.68 µM; in the test with mPTP-inactive Daoy cell (Homo sapiens, Daoy), 1.21 µM.

Take `COc1ccc2c(c1OCCCCCCNC(=O)OC(C)(C)C)C(C(Cl)(Cl)Cl)N1CCc3cc4c(cc3C1=C2)OCO4` (centres unmarked) [AB35407]: the 50% inhibitory concentration (IC50) with mPTP-active Daoy cell (Homo sapiens, Daoy) was 2.83 µM; with mPTP-inactive Daoy cell (Homo sapiens, Daoy), 1.34 µM.

For `COc1ccc2c(c1OC)C(C)N1CCc3cc4c(cc3C1=C2CCCc1ccccc1)OCO4` (centres unmarked) [AB35411], the results for the IC50 in the test with mPTP-active Daoy cell and with mPTP-inactive Daoy cell were 3.51 µM and 1.78 µM, respectively.

On to `CC1c2c(ccc3c2OCO3)C=C2c3cc4c(cc3CCN21)OCO4` (centres unmarked) [AB35413], for which the concentration for half-maximal inhibition (IC50) in the test with mPTP-active Daoy cell (Homo sapiens, Daoy) was 13.3 µM; in the test with mPTP-inactive Daoy cell (Homo sapiens, Daoy), 6.87 µM.

For the molecule `COc1ccc2c(c1OCCCCCCNC(=O)OC(C)(C)C)C(C)N1CCc3cc4c(cc3C1=C2)OCO4` (centres unmarked) [AB35415], the half-maximal inhibitory concentration (IC50) was determined as 4.79 µM in the test on mPTP-active Daoy cell (Homo sapiens, Daoy) and 2.26 µM with mPTP-inactive Daoy cell (Homo sapiens, Daoy).

Turning to `COc1ccc2c(c1OCCNC(=O)OC(C)(C)C)C(C(Cl)(Cl)Cl)N1CCc3cc4c(cc3C1=C2)OCO4` (centres unmarked) [AB35416], the half-inhibitory concentration (IC50) is 10.6 µM in the test with mPTP-active Daoy cell (Homo sapiens, Daoy) and 5.11 µM with mPTP-inactive Daoy cell (Homo sapiens, Daoy).

On to `COc1ccc2c(c1OC)C(C(Cl)(Cl)Cl)N1CCc3cc4c(cc3C1=C2CCCc1ccccc1)OCO4` (centres unmarked) [AB35417], for which the IC50 stood at 3.62 µM with mPTP-active Daoy cell (Homo sapiens, Daoy) and 1.61 µM in the test with mPTP-inactive Daoy cell (Homo sapiens, Daoy).

Take `CCCCCC1=C2c3cc4c(cc3CCN2C(C(Cl)(Cl)Cl)c2c1ccc(OC)c2OC)OCO4` (centres unmarked) [AB35418]: the half-maximal inhibitory concentration (IC50) with mPTP-active Daoy cell (Homo sapiens, Daoy) was found to be 3.25 µM; in the test on mPTP-inactive Daoy cell (Homo sapiens, Daoy) it was 1.56 µM.

For the molecule `COc1ccc2c(c1OCCN1CCCCC1)C(C(Cl)(Cl)Cl)N1CCc3cc4c(cc3C1=C2)OCO4` (centres unmarked) [AB35420], the 50% inhibitory concentration (IC50) in the test with mPTP-active Daoy cell (Homo sapiens, Daoy) is 9.55 µM; with mPTP-inactive Daoy cell (Homo sapiens, Daoy), 4.59 µM.

With `ClC(Cl)(Cl)C1c2c(ccc3c2OCO3)C=C2c3cc4c(cc3CCN21)OCO4` (centres unmarked) [AB35421], the half-maximal inhibitory concentration (IC50) with mPTP-active Daoy cell (Homo sapiens, Daoy) was over 50 µM; with mPTP-inactive Daoy cell (Homo sapiens, Daoy) it was 24.9 µM.

As for `CCCCCC1=C2c3cc4c(cc3CCN2C(C)c2c1ccc(OC)c2OC)OCO4` (centres unmarked) [AB35422], the IC50 in the test with mPTP-active Daoy cell (Homo sapiens, Daoy) worked out at 5.27 µM; with mPTP-inactive Daoy cell (Homo sapiens, Daoy), 2.59 µM.

With `COc1ccc2c(c1OCCCCNC(=O)OC(C)(C)C)C(C(Cl)(Cl)Cl)N1CCc3cc4c(cc3C1=C2)OCO4` (centres unmarked) [AB35423], the 50% inhibitory concentration (IC50) in the test with mPTP-active Daoy cell was determined as 4.82 µM; with mPTP-inactive Daoy cell, 2.36 µM.

For `COc1ccc2c(c1OCCNC(=O)OC(C)(C)C)C(C)N1CCc3cc4c(cc3C1=C2)OCO4` (centres unmarked) [AB35424], the IC50 in the test on mPTP-active Daoy cell (Homo sapiens, Daoy) was 13.8 µM; in the test on mPTP-inactive Daoy cell (Homo sapiens, Daoy), 6.18 µM.

Take `CCCCCCC1c2c(ccc3c2OCO3)C=C2c3cc4c(cc3CCN21)OCO4` (centres unmarked) [AB35426]: the half-maximal inhibitory concentration (IC50) in the test with mPTP-active Daoy cell (Homo sapiens, Daoy) came out at 2.71 µM; in the test with mPTP-inactive Daoy cell (Homo sapiens, Daoy), 1.03 µM.

Turning to `CC1c2c(ccc3c2OCO3)C(CCCc2ccccc2)=C2c3cc4c(cc3CCN21)OCO4` (centres unmarked) [AB35427], the IC50 with mPTP-active Daoy cell (Homo sapiens, Daoy) was found to be 3.27 µM; with mPTP-inactive Daoy cell (Homo sapiens, Daoy), 1.49 µM.
